Assay results as given in the CheMixHub viscosity set.

Assay: xn = mol fraction of the nth substance listed

CCCCOCCOCCOCCCC + CCCO
298.15 K, 101.33 kPa
Details	viscosity [mPa·s]
x1 = 0.0034	1.944
x1 = 0.0097	1.937
x1 = 0.0158	1.93
x1 = 0.0252	1.917
x1 = 0.0426	1.895
x1 = 0.0734	1.866
x1 = 0.0979	1.849
x1 = 0.1509	1.832
x1 = 0.1955	1.824
x1 = 0.2419	1.827
x1 = 0.2937	1.837
x1 = 0.3481	1.851
x1 = 0.3959	1.868
x1 = 0.4376	1.884
x1 = 0.4827	1.901
x1 = 0.54	1.925
x1 = 0.5983	1.949
x1 = 0.6416	1.968
x1 = 0.6954	1.99
x1 = 0.7531	2.016
x1 = 0.8095	2.039
x1 = 0.8656	2.061
x1 = 0.9083	2.079
x1 = 0.9447	2.096
x1 = 0.9742	2.111

Cc1cccc(N)c1 + Cc1ccccc1
303.15 K, 101.33 kPa
Details	viscosity [mPa·s]
x1 = 0.168	0.61
x1 = 0.422	0.8
x1 = 0.619	1.05
x1 = 0.801	1.53

OC[C@H]1O[C@@](CO)(O[C@H]2O[C@H](CO)[C@@H](O)[C@H](O)[C@H]2O)[C@@H](O)[C@@H]1O + CS(C)=O
viscosity [mPa·s], 101 kPa
Details	298.15 K	308.15 K	318.15 K
x1 = 0.006451	2.4	1.962	1.63
x1 = 0.01289	2.883	2.319	1.908
x1 = 0.01959	3.523	2.793	2.266
x1 = 0.0336	5.532	4.214	3.309
x1 = 0.04801	9.087	6.615	4.999
x1 = 0.05582	12.08	8.541	6.292
x1 = 0.06395	16.4	11.28	8.055
x1 = 0.07246	22.45	14.86	10.39
x1 = 0.08036	30.82	19.69	13.36
x1 = 0.09752	61.59	36.46	23.02
x1 = 0.1069	90.84	51.59	31.4
x1 = 0.117	139.8	75.48	43.98
x1 = 0.1263	211.4	109.3	61.19

NC(N)=S + O
viscosity [mPa·s], 100 kPa
Details	293.15 K	298.15 K	303.15 K	308.15 K	313.15 K
x1 = 0.00045	1.01	0.907	0.817	0.735	0.668
x1 = 0.0009	1.019	0.916	0.823	0.747	0.677
x1 = 0.0013	1.029	0.935	0.847	0.763	0.702

CCCCOCCOCCOCCCC + CCCN
298.15 K, 101 kPa
Details	viscosity [mPa·s]
x1 = 0.0095	0.375
x1 = 0.0288	0.417
x1 = 0.0455	0.45
x1 = 0.0845	0.529
x1 = 0.1266	0.622
x1 = 0.1754	0.719
x1 = 0.2172	0.806
x1 = 0.2531	0.87
x1 = 0.266	0.904
x1 = 0.3172	0.994
x1 = 0.3559	1.055
x1 = 0.3977	1.129
x1 = 0.4621	1.24
x1 = 0.516	1.33
x1 = 0.5979	1.489
x1 = 0.6482	1.579
x1 = 0.6986	1.689
x1 = 0.7471	1.774
x1 = 0.7956	1.869
x1 = 0.8618	2.01
x1 = 0.9261	2.093
x1 = 0.9641	2.143

C1CCC(C2CCCCC2)CC1 + c1ccc2c(c1)CCCC2
viscosity [mPa·s], 102 kPa
Details	x2 = 0.1226	x2 = 0.2394	x2 = 0.3504	x2 = 0.4561	x2 = 0.5573	x2 = 0.6537	x2 = 0.747	x2 = 0.8343	x2 = 0.9189
293.15 K	3.67	3.35	3.08	2.87	2.7	2.55	2.44	2.34	2.28
303.15 K	2.91	2.67	2.48	2.33	2.2	2.09	2	1.93	1.88
313.15 K	2.36	2.19	2.04	1.93	1.83	1.75	1.68	1.62	1.58
323.15 K	1.95	1.82	1.71	1.62	1.54	1.48	1.43	1.38	1.35

NCCNCCN + CCCCn1cc[n+](C)c1.F[B-](F)(F)F
Details	viscosity [mPa·s]
313.15 K, 101.33 kPa, x2 = 0.8948	46.45

CCCCCCCCCCCCCC(=O)OCC + CCC1CCCCC1
viscosity [mPa·s], 100 kPa
Details	x2 = 0.0998	x2 = 0.2	x2 = 0.3001	x2 = 0.4002	x2 = 0.5	x2 = 0.6	x2 = 0.6999	x2 = 0.8	x2 = 0.9
293.15 K	4.251	3.768	3.305	2.865	2.44	2.053	1.709	1.387	1.105
298.15 K	3.763	3.351	2.962	2.582	2.221	1.88	1.572	1.286	1.034
303.15 K	3.361	3.011	2.672	2.34	2.022	1.726	1.45	1.199	0.972
308.15 K	3.01	2.709	2.411	2.12	1.845	1.579	1.335	1.11	0.904
313.15 K	2.694	2.432	2.18	1.925	1.685	1.454	1.234	1.031	0.839
318.15 K	2.461	2.227	2	1.775	1.558	1.353	1.152	0.964	0.791
323.15 K	2.242	2.032	1.829	1.628	1.436	1.251	1.071	0.9	0.736

CCCCCCCCCCCC(=O)O + CCCCCCCCCC(=O)O
100 kPa, x1 = 0.33
Details	viscosity [mPa·s]
293.15 K	12.89
298.15 K	10.76
303.15 K	9.199
308.15 K	7.939
313.15 K	6.909
318.15 K	6.059
323.15 K	5.349

CCCCO + CO
101.33 kPa
Details	viscosity [mPa·s]
298.15 K, x2 = 0.1362	2.2
298.15 K, x2 = 0.2224	1.966
298.15 K, x2 = 0.302	1.768
298.15 K, x2 = 0.409	1.528
298.15 K, x2 = 0.5154	1.312
298.15 K, x2 = 0.6105	1.139
298.15 K, x2 = 0.693	0.999
298.15 K, x2 = 0.8012	0.833
298.15 K, x2 = 0.9004	0.69
303.15 K, x2 = 0.2846	1.602
303.15 K, x2 = 0.3614	1.45
303.15 K, x2 = 0.4291	1.311
303.15 K, x2 = 0.492	1.191
303.15 K, x2 = 0.6007	1.038
303.15 K, x2 = 0.6929	0.8879
303.15 K, x2 = 0.7719	0.7812
303.15 K, x2 = 0.8404	0.6887
303.15 K, x2 = 0.9003	0.6154

NCCNCCN + CCN(CC)CCO
viscosity [mPa·s], 101 kPa
Details	x1 = 0.1	x1 = 0.1999	x1 = 0.2999	x1 = 0.3997	x1 = 0.4997	x1 = 0.5997	x1 = 0.6996	x1 = 0.7992	x1 = 0.8989
293.15 K	6.36	7.21	8	8.32	8.45	8.11	7.8	7.34	7.02
303.15 K	4.38	4.95	5.25	5.5	5.64	5.52	5.31	5.08	4.89
313.15 K	3.14	3.46	3.72	3.92	4.02	3.94	3.8	3.62	3.52
323.15 K	2.28	2.54	2.72	2.9	3	2.95	2.88	2.77	2.69

O=C(O)CC(O)C(=O)O (stereo unspecified) + C[C@H](N)C(=O)O
101 kPa, x2 = 0.5
Details	viscosity [mPa·s]
298.15 K	475400
318.15 K	32390

NCCNCCN + CCCCCCCCO
viscosity [mPa·s], 101 kPa
Details	298.15 K	303.15 K	308.15 K
x1 = 0.0574	8.191	6.649	5.637
x1 = 0.1135	8.77	7.063	5.975
x1 = 0.1584	9.103	7.248	6.111
x1 = 0.2	9.198	7.3	6.14
x1 = 0.2521	9.202	7.268	6.096
x1 = 0.311	9.044	7.129	5.957
x1 = 0.4024	8.532	6.792	5.691
x1 = 0.5076	7.72	6.264	5.244
x1 = 0.6106	6.988	5.798	4.877
x1 = 0.7085	6.366	5.286	4.493
x1 = 0.8064	6.017	4.915	4.228
x1 = 0.8556	5.901	4.791	4.101
x1 = 0.9033	5.791	4.679	3.999
x1 = 0.9524	5.699	4.584	3.889

O=C(O)CC(O)C(=O)O (stereo unspecified) + C[N+](C)(C)CCO.[Cl-]
Details	viscosity [mPa·s]
293.15 K, 101 kPa, x1 = 0.5	24490
293.2 K, 101.3 kPa, x2 = 0.602	8896
293.2 K, 101.3 kPa, x2 = 0.666	3341
298 K, 101.3 kPa, x2 = 0.5	2082
298.15 K, 101 kPa, x1 = 0.5	22090
298.15 K, 101.33 kPa, x1 = 0.7	530.2
303.15 K, 101 kPa, x1 = 0.5	13390
303.2 K, 101.3 kPa, x2 = 0.602	5432
303.2 K, 101.3 kPa, x2 = 0.666	2810
308.15 K, 101 kPa, x1 = 0.5	8995
313.15 K, 101 kPa, x1 = 0.5	5859
313.2 K, 101.3 kPa, x2 = 0.505	6421
313.2 K, 101.3 kPa, x2 = 0.602	2827
313.2 K, 101.3 kPa, x2 = 0.666	1676
318.15 K, 101 kPa, x1 = 0.5	4121
323 K, 101.3 kPa, x2 = 0.5	610
323.15 K, 101 kPa, x1 = 0.5	2924

C=C1CCC2CC1C2(C)C (stereo unspecified) + Cc1cc(C)cc(C)c1
viscosity [mPa·s], 101 kPa
Details	x2 = 0.2198	x2 = 0.3257	x2 = 0.429	x2 = 0.5299	x2 = 0.6283	x2 = 0.7245	x2 = 0.8185	x2 = 0.9103
303.15 K	1.254	1.108	0.981	0.871	0.799	0.743	0.696	0.661
308.5 K	1.167	1.032	0.915	0.819	0.749	0.695	0.653	0.622
313.15 K	1.082	0.959	0.854	0.768	0.698	0.645	0.606	0.576
